Test [1] deals with post-menopausal loss of bone. Conditions: chronic treatment, clinical data; background; cited from earlier work.
The subject of a further test is hen osteoclasts. In words: inhibition of in vitro bone resorption activity of hen osteoclasts. Type of test: cell-based. Conditions: for percent of control bone resorption: mean ± SE, n=3-6. The procedure: (§1) Control resorption in Table 2b corresponded to 12-62 Howship's lacunae per bone slice (n=4-4. mean ±SE).
As summarized in Table 3, the various analogs inhibited the resorption of hen osteoclasts with IIIA IC50=10 nM; IIIb, IC50=100 nM; and Ib, IC50=500 nM. Data presented are percent of control bone resorption (n=3-6, mean ±SE). Control levels of resorption varied from 26-49 mg bone resorbed between days 4-6 in culture.

Test [2] has as its system osteoclastic bone resorption. Description: serum calcium in a rat model of secondary hyperparathyroidism (calcium deficient diet), 6 hr infusion. Type of test: in vivo, Sprague Dawley rats. Conditions: T=0 control 12 mg/dl, P<0.05. The source says:
Compounds were also examined in a rat model of secondary hyperparathyroidism according to similars method as set out in Thomas et al., Bone and Mineral, 4, pp. 73-82 (1988) in an effort to examine the ability of these compounds to inhibit osteoclastic bone resorption in vivo. Serum calcium levels (mg/dl) were previously shown to be dependant on bone resorption in Sprague Dawley rats (400 g males) maintained on a calcium deficient diet for 2 weeks. Serum calcium levels were examined colorimetrically (Sigma, St. Louis) before (T=O) and after 6 hr infusion (T=6) of compounds at a rate of 0.08 ml/hr through cannula inserted into the jugular vein of anesthesized rates. At T=0, the serum calcium of a control rat was 12 mg/dl.

A further test has as its system rat osteoclasts. Description: inhibition of in vitro bone resorption activity of rat osteoclasts (Howship's lacunae per bone slice). Type of test: cell-based. Conditions: Osteoclast, Table 2b, mean ± SE, read-out: % Control Bone Resorption.
From the text: as §1

Another test has as its system ovariectomized rats. In words: bone mineral density and content of left proximal tibiae in ovariectomized rats (pQCT). Type of test: in vivo, rat. The note with it: 5 weeks, mean ± SD, n=6; for Bone Content: Sham 14 ± 1.5, OVX 10.4 ± 1.2; for Total Bone Mineral Density: Sham 590 ± 26, OVX 494 ± 29. The source says: As summarized in Table 4, IIIa was also examined in 6 month old, ovariectomized rats. The bone mineral density (mg/cm^3) and bone mineral content (mg) of the left proximal tibiae were quantitated by computer tomography with a Norland 960 pQCT after daily dosing per os for 5 weeks, similar to the methods of Griffin et al., "Dual-energy X-ray Absorptiometry of the Rat: Accuracy, Precision and Measurement of Bone Loss", J. Bone Miner. Res 8, pp. 795-800 (1993). There were five groups of rats with n=6 per group: Sham, OVX, 0.001, 0.01, and 0.1 mg of IIIa/kg per os daily. In vivo data are presented for a 2 mm slice of the left proximal tibia at 5 weeks post-ovariectomy (mean ±standard deviation).

Another test has as its system mammalian osteoclasts. Conditions: background; cited from earlier work.
Setting [3] is: Table 3, concentration 1 × 10^-6.
Where [4] appears, read: Table 3, concentration 1 × 10^-7.
Where [5] appears, read: Table 3, concentration 1 × 10^-8.
[6] abbreviates: Table 3, concentration 1 × 10^-9.
The mark [7] stands for this setting: 1 mg/kg/day infused via jugular vein.
The mark [8] stands for this setting: Osteoclast, read-out: % Control Bone Resorption.

These results are taken from patent US5468773A, “Methods for inhibiting bone loss and cartilage degradation using wortmannin and its analogs” (Eli Lilly and Company, priority 1994, dated 1995).

Where two headings read alike, the source gives them in different places. Ends that are not written are not given here.

For “calcitonin: calcitonin has been used to treat osteoporotic patients (CGNLSTCMLGTYTQDFNKFHTFPQTAIGVGAP; ends and bridges not checked; cysteine pairing not given here; UniProt P01258 85-116, looked up)”, the “arrest of post-menopausal loss of bone” value in test [1] is listed as “ineffective to arrest the post-menopausal loss of bone”.
On to `Cc1c2c(c(O)c3occ(C(=O)O)c13)[C@@H]1CCC(=O)[C@@]1(C)C=C2` [IVa], for which the “percent of control bone resorption” value was 105 ± 10% in the test on hen osteoclasts (setting [3]), 110 ± 13% in the test with hen osteoclasts (setting [4]), 99 ± 15% with hen osteoclasts (setting [5]) and 93 ± 14% in the test with hen osteoclasts (setting [6]).
For `COC[C@H]1OC(=O)c2coc3c2[C@@]1(C)C1=C(C3=O)[C@@H]2CCC(=O)[C@@]2(C)C[C@H]1OC(C)=O` [Wortmannin, wortmannin], the “serum calcium after 6 hr of infusion” value in test [2] (setting [7]) is on record as “approximately 9 mg/dl”. Moreover, the activity at 1 µM in the test with rat osteoclasts (1 × 10^-6 M) came out at 3 ± 3%. Besides, in the test with rat osteoclasts (1 × 10^-7 M), the activity at 0.1 µM came out at 30 ± 6%. In addition, the activity at 0.01 µM in the test with rat osteoclasts (1 × 10^-8 M) was determined as 32 ± 13%. Moreover, the activity at 0.001 µM in the test with rat osteoclasts (1 × 10^-9 M) came to 79 ± 22%. The activity at 0.0001 µM in the test with rat osteoclasts (1 × 10^-10 M) was found to be 93 ± 11%. Besides, in the test with hen osteoclasts (setting [8]), the activity at 0.01 µM amounted to 90 ± 7%, the activity at 0.05 µM was 79 ± 2%, the activity at 0.1 µM amounted to 58 ± 6% and the activity at 0.5 µM was found to be 52 ± 3%. Moreover, in the test on hen osteoclasts (setting [8]), the activity at 1 µM worked out at 54 ± 4%, the activity at 5 µM was 19 ± 1% and the activity at 10 µM was determined as 23 ± 7%. Also, the IC50 with hen osteoclasts (Osteoclast, read-out: IC50, in vitro bone resorption activity) came out at 300 nM.
On to `COC[C@H]1OC(=O)c2coc3c2[C@@]1(C)C1=C(C3=O)[C@@H]2CC[C@H](O)[C@@]2(C)C[C@H]1OC(C)=O` [IIIa, 17α-Dihydrowortmannin], for which the “Bone Content” value with ovariectomized rats (0.001 mg/kg/day per os) is given as 13.6 ± .6 mg; with ovariectomized rats (0.01 mg/kg/day per os), 13.5 ± 1 mg; in the test on ovariectomized rats (0.1 mg/kg/day per os) it was 11.5 ± .7 mg. For the same molecule, the entries for the “Total Bone Mineral Density” value in the test with ovariectomized rats (0.001 mg/kg/day per os), with ovariectomized rats (0.01 mg/kg/day per os) and in the test with ovariectomized rats (0.1 mg/kg/day per os) were 528 ± 33 mg/cm3, 545 ± 26 mg/cm3 and 494 ± 18 mg/cm3, respectively. Besides, the “serum calcium after 6 hr of infusion” value in test [2] (setting [7]) was ~5 mg/dL. In addition, the “percent of control bone resorption” value with hen osteoclasts (setting [3]) was 8 ± 1%; in the test on hen osteoclasts (setting [4]) it was 29 ± 4%; in the test with hen osteoclasts (setting [5]) it was 67 ± 5%; in the test on hen osteoclasts (setting [6]), 94 ± 5%.
On to salmon calcitonin [reference compound], for which the “serum calcium after 6 hr of infusion” value in test [2] (positive control, 12 ug/kg/day) amounted to 9 mg/dL. Further, the “inhibition of resorption activity of mammalian osteoclasts” value in the test on mammalian osteoclasts is “directly inhibit the resorption activity of mammalian osteoclasts”.
With `COC[C@H]1OC(=O)c2coc3c2[C@@]1(C)C1=C(C3=O)[C@@H]2CCC(=O)[C@@]2(C)CC1` [Ib, 11-deacetoxywortmannin], the half-maximal inhibitory concentration (IC50) in the test on hen osteoclasts (Osteoclast, hen osteoclasts, analogs, Example 2, read-out: IC50, resorption of hen osteoclasts) amounted to 500 nM. The “percent of control bone resorption” value amounted to 42 ± 3% in the test with hen osteoclasts (setting [3]), 90 ± 15% in the test on hen osteoclasts (setting [4]), 97 ± 17% in the test with hen osteoclasts (setting [5]) and 106 ± 10% in the test with hen osteoclasts (setting [6]).
As for `COC[C@H]1OC(=O)c2coc3c2[C@@]1(C)C1=C(C3=O)[C@@H]2CC[C@H](O)[C@@]2(C)CC1` [IIIb, 11-Desacetoxy-17α-dihydrowortmannin], in the test with hen osteoclasts (Osteoclast, read-out: IC50, resorption of hen osteoclasts), the concentration for half-maximal inhibition (IC50) was determined as 100 nM. The “percent of control bone resorption” value in the test on hen osteoclasts (setting [3]) is reported as 26 ± 3%; with hen osteoclasts (setting [4]), 50 ± 4%; in the test on hen osteoclasts (setting [5]), 88 ± 19%; in the test on hen osteoclasts (setting [6]), 124 ± 23%.

As a reminder, the IC50 is the concentration that inhibits the measured activity by half.
